Consider 18 molecules from US11390604B2 (Hoffmann-La Roche Inc., priority 2019, dated 2022).

Structures can show the parent of a compound that is named as a salt.

The test system of one assay is Acinetobacter baumannii ATCC 17961. Put plainly: Antimicrobial susceptibility testing: 90% growth inhibitory concentration (IC90) determination. Type of assay: cell-based. The following applies: ATCC17961, Acinetobacter baumannii ATCC 17961, Iso-Sensitest broth, read-out: ATCC 17961 IC90. The procedure: Antimicrobial Susceptibility Testing:
90% Growth Inhibitory Concentration (IC90) Determination
The in vitro antimicrobial activity of the compounds was determined according to the following procedure:
The assay used a 10-points Iso-Sensitest broth medium to measure quantitatively the in vitro activity of the compounds against Acinetobacter baumannii ATCC 17961.
Stock compounds in DMSO were serially twofold diluted (e.g. range from 50 to 0.097 μM final concentration) in 384 wells microtiter plates and inoculated with 49 μl the bacterial suspension in Iso-Sensitest medium to have a final cell concentration of ˜5×10^(5) CFU/ml in a final volume/well of 50 ul/well. Microtiter plates were incubated at 35±2° C.
Bacterial cell growth was determined with the measurement of optical density at X=600 nm each 20 minutes over a time course of 16 h. Growth inhibition was calculated during the logarithmic growth of the bacterial cells with determination of the concentration inhibiting 50% (IC50) and 90% (IC90) of the growth.
Table 1 provides the 90% growth inhibitory concentrations (IC90) in micromoles per liter of the compounds of present disclosure obtained against the strain Acinetobacter baumannii ATCC 17961.
Turning to `CN(C(=O)c1ccc(NC(=O)c2ncc(-c3cn(C4CC4(F)F)nc3C(F)(F)F)n2C)cc1Cl)C1CCN(C(=O)N[C@H]2C[C@@H](N)C2)CC1` (mixture of isomers) [Example 294, rac-N-((1s,3s)-3-aminocyclobutyl)-4-(2-chloro-4-(5-(1-(2,2-difluorocyclopropyl)-3-(trifluoromethyl)-1H-pyrazol-4-yl)-1-methyl-1H-imidazole-2-carboxamido)-N-methylbenzamido)piperidine-1-carboxamide formate], the IC90 came out at 363 nM.

With `Cn1c(-c2cn(C3CC3(F)F)nc2C(F)(F)F)cnc1C(=O)Nc1ccc(C(=O)N2CC3C(C2)C3NC(=O)N[C@H]2CNC[C@@H]2O)c(Cl)c1` (mixture of isomers) [Example 300, rac-N-(3-chloro-4-(6-(3-((3R,4R)-4-hydroxypyrrolidin-3-yl)ureido)-3-azabicyclo[3.1.0]hexane-3-carbonyl)phenyl)-5-(1-(2,2-difluorocyclopropyl)-3-(trifluoromethyl)-1H-pyrazol-4-yl)-1-methyl-1H-imidazole-2-carboxamide formate], the IC90 turned out to be 367 nM. For `Cn1c(-c2cn(C3CC3(F)F)nc2C(F)(F)F)cnc1C(=O)Nc1ccc(C(=O)NCC2CC3CN(C(=O)N[C@H]4CNC[C@@H]4O)CC3C2)c(Cl)c1` (mixture of isomers) [Example 310, rac-5-((2-chloro-4-(5-(1-(2,2-difluorocyclopropyl)-3-(trifluoromethyl)-1H-pyrazol-4-yl)-1-methyl-1H-imidazole-2-carboxamido)benzamido)methyl)-N-((3R,4R)-4-hydroxypyrrolidin-3-yl)hexahydrocyclopenta[c]pyrrole-2(1H)-carboxamide formate], the IC90 was 379 nM. With `Cn1c(-c2cn(C3CC3(F)F)nc2C(F)(F)F)cnc1C(=O)Nc1ccc(C(=O)N2C[C@H]3CNC[C@@H]3C2)c(Cl)c1` (mixture of isomers) [Example 329, rac-N-(3-chloro-4-((3aR,6aR)-octahydropyrrolo[3,4-c]pyrrole-2-carbonyl)phenyl)-5-(1-(2,2-difluorocyclopropyl)-3-(trifluoromethyl)-1H-pyrazol-4-yl)-1-methyl-1H-imidazole-2-carboxamide formate], the concentration for an effect of 90% (IC90) was 420 nM. In the case of `CN(CCCCNC(=O)c1ccc(NC(=O)c2ncc(-c3cn(C4CC4(F)F)nc3C(F)(F)F)n2C)cc1Cl)C(=O)N[C@H]1CNC[C@@H]1O` (mixture of isomers) [Example 331, rac-N-(3-chloro-4-((4-(3-((3S,4S)-4-hydroxypyrrolidin-3-yl)-1-methylureido)butyl)carbamoyl)phenyl)-5-(1-(2,2-difluorocyclopropyl)-3-(trifluoromethyl)-1H-pyrazol-4-yl)-1-methyl-1H-imidazole-2-carboxamide formate], the IC90 was determined as 422 nM. For the molecule `Cn1c(-c2cn(C3CC3(F)F)nc2C(F)(F)F)cnc1C(=O)Nc1ccc(C(=O)NC2(C)CCN(C(=O)N[C@H]3C[C@@H](N)C3)CC2)c(Cl)c1` (mixture of isomers) [Example 333, rac-N-((1s,3s)-3-aminocyclobutyl)-4-(2-chloro-4-(5-(1-(2,2-difluorocyclopropyl)-3-(trifluoromethyl)-1H-pyrazol-4-yl)-1-methyl-1H-imidazole-2-carboxamido)benzamido)-4-methylpiperidine-1-carboxamide formate], the IC90 amounted to 422 nM. Still for that read-out and setting: in the case of `Cn1c(-c2cn(C3CC3(F)F)nc2C(F)(F)F)cnc1C(=O)Nc1ccc(C(=O)N[C@H]2C[C@H]3CC[C@@H](C2)N3)c(Cl)c1` (mixture of isomers) [Example 346, rac-N-(4-(((1R,3r,5S)-8-azabicyclo[3.2.1]octan-3-yl)carbamoyl)-3-chlorophenyl)-5-(1-(2,2-difluorocyclopropyl)-3-(trifluoromethyl)-1H-pyrazol-4-yl)-1-methyl-1H-imidazole-2-carboxamide formate] it was 446 nM; in that of `Cn1c(-c2cn(C3CC3(F)F)nc2C(F)(F)F)cnc1C(=O)Nc1ccc(C(=O)NC2CC3CN(C(=O)N[C@H]4CNC[C@@H]4O)CC32)c(Cl)c1` (mixture of isomers) [Example 347, rac-6-(2-chloro-4-(5-(1-(2,2-difluorocyclopropyl)-3-(trifluoromethyl)-1H-pyrazol-4-yl)-1-methyl-1H-imidazole-2-carboxamido)benzamido)-N-((3S,4S)-4-hydroxypyrrolidin-3-yl)-3-azabicyclo[3.2.0]heptane-3-carboxamide formate], 446 nM; in that of `COC1CN(C(=O)N[C@H]2CNC[C@@H]2O)CC1NC(=O)c1ccc(NC(=O)c2ncc(-c3cn(C4CC4(F)F)nc3C(F)(F)F)n2C)cc1Cl` (mixture of isomers) [Example 350, rac-N-(3-chloro-4-((trans-1-(((3R,4R)-4-hydroxypyrrolidin-3-yl)carbamoyl)-4-methoxypyrrolidin-3-yl)carbamoyl)phenyl)-5-(1-(2,2-difluorocyclopropyl)-3-(trifluoromethyl)-1H-pyrazol-4-yl)-1-methyl-1H-imidazole-2-carboxamide formate], 450 nM.

Take `Cn1c(-c2cn(CC3CC3)nc2C(F)(F)F)cnc1C(=O)Nc1ccc(C(=O)N2CCN(C(=O)C3[C@H]4CNC[C@@H]34)CC2)c(Cl)c1` (mixture of isomers) [Example 358, rac-N-(4-(4-((1R,5S)-3-azabicyclo[3.1.0]hexane-6-carbonyl)piperazine-1-carbonyl)-3-chlorophenyl)-5-(1-(cyclopropylmethyl)-3-(trifluoromethyl)-1H-pyrazol-4-yl)-1-methyl-1H-imidazole-2-carboxamide hydrochloride]: the concentration for an effect of 90% (IC90) worked out at 467 nM. The same measure, in the same setting: then `Cn1c(-c2cn(C3CC3(F)F)nc2C(F)(F)F)cnc1C(=O)Nc1ccc(C(=O)NCC2C3CN(C(=O)N[C@H]4CNC[C@@H]4O)CC23)c(Cl)c1` (mixture of isomers) [Example 365, rac-6-((2-chloro-4-(5-(1-(2,2-difluorocyclopropyl)-3-(trifluoromethyl)-1H-pyrazol-4-yl)-1-methyl-1H-imidazole-2-carboxamido)benzamido)methyl)-N-((3S,4S)-4-hydroxypyrrolidin-3-yl)-3-azabicyclo[3.1.0]hexane-3-carboxamide formate], with 483 nM; and `Cn1c(-c2cn(CC3CC3(F)F)nc2C(F)(F)F)cnc1C(=O)Nc1ccc(C(=O)N[C@H]2[C@@H]3CN(C(=O)N[C@@H]4CNC[C@H]4O)C[C@@H]32)c(Cl)c1` (mixture of isomers) [Example 385, rac-(1R,5S,6s)-6-(2-chloro-4-(5-(1-((2,2-difluorocyclopropyl)methyl)-3-(trifluoromethyl)-1H-pyrazol-4-yl)-1-methyl-1H-imidazole-2-carboxamido)benzamido)-N-((3S,4S)-4-hydroxypyrrolidin-3-yl)-3-azabicyclo[3.1.0]hexane-3-carboxamide formate], with 100 nM; and `Cn1c(-c2cn(C3CC3(F)F)nc2C(F)(F)F)cnc1C(=O)Nc1ccc(C(=O)NC2CCN(C(=O)N[C@@H]3CNC[C@H]3O)CC2)c(Cl)c1` (relative stereo) [Example 337, 4-(2-chloro-4-(5-(1-(2,2-difluorocyclopropyl)-3-(trifluoromethyl)-1H-pyrazol-4-yl)-1-methyl-1H-imidazole-2-carboxamido)benzamido)-N-(trans-4-hydroxypyrrolidin-3-yl)piperidine-1-carboxamide], with 426 nM. `Cn1c(-c2c[nH]nc2C(F)(F)F)cnc1C(=O)Nc1ccc(C(=O)N2CCN(C(=O)C3CCNCC3)CC2)c(Cl)c1` [Example 1, N-(3-chloro-4-(4-(piperidine-4-carbonyl)piperazine-1-carbonyl)phenyl)-1-methyl-5-(3-(trifluoromethyl)-1H-pyrazol-4-yl)-1H-imidazole-2-carboxamide hydrochloride]: the IC90 was found to be 525 nM. Regarding `Cn1c(-c2cn(CC(F)(F)F)nc2C(F)(F)F)cnc1C(=O)Nc1ccc(C(=O)N2CCN(C(=O)C3CCNCC3)CC2)c(Cl)c1` [Example 2, N-(3-Chloro-4-(4-(piperidine-4-carbonyl)piperazine-1-carbonyl)phenyl)-1-methyl-5-(1-(2,2,2-trifluoroethyl)-3-(trifluoromethyl)-1H-pyrazol-4-yl)-1H-imidazole-2-carboxamide Hydrochloride], the IC90 is 399 nM. Still for that read-out and setting: then `Cn1c(-c2cn(CCC(N)=O)nc2C(F)(F)F)cnc1C(=O)Nc1ccc(C(=O)N2CCN(C(=O)C3CCNCC3)CC2)c(Cl)c1` [Example 4, 5-(1-(3-amino-3-oxopropyl)-3-(trifluoromethyl)-1H-pyrazol-4-yl)-N-(3-chloro-4-(4-(piperidine-4-carbonyl)piperazine-1-carbonyl)phenyl)-1-methyl-1H-imidazole-2-carboxamide], with 4060 nM. Take `Cn1c(-c2cn(CCC#N)nc2C(F)(F)F)cnc1C(=O)Nc1ccc(C(=O)N2CCN(C(=O)C3CCNCC3)CC2)c(Cl)c1` [Example 5, N-(3-chloro-4-(4-(piperidine-4-carbonyl)piperazine-1-carbonyl)phenyl)-5-(1-(2-cyanoethyl)-3-(trifluoromethyl)-1H-pyrazol-4-yl)-1-methyl-1H-imidazole-2-carboxamide]: the IC90 is 1040 nM.

The same assay, now with this note: Acinetobacter baumannii, ATCC17961, read-out: ATCC 17961 IC90, Acinetobacter baumannii ATCC 17961, Iso-Sensitest broth.
With `Cn1c(-c2cn(C3CC3(F)F)nc2C(F)(F)F)cnc1C(=O)Nc1ccc(C(=O)N2CCC(F)(CNC(=O)N[C@H]3CNC[C@@H]3O)CC2)c(Cl)c1` (relative stereo) [Example 179, N-(3-chloro-4-(4-fluoro-4-((3-(trans-4-hydroxypyrrolidin-3-yl)ureido)methyl)piperidine-1-carbonyl)phenyl)-5-(1-(2,2-difluorocyclopropyl)-3-(trifluoromethyl)-1H-pyrazol-4-yl)-1-methyl-1H-imidazole-2-carboxamide Formate], the IC90 came out at 192 nM.
